Test results taken from patent US6617358B1, “Anticonvulsant and central nervous system-depressing bis(fluorophenyl)alkylamides and their uses” (NPS Pharmaceuticals, Inc., priority 1997, dated 2003).

System: flexor reflex in normal anesthetized rats
Assay: Flexor reflex in normal anesthetized rats (FIG. 3)
Assay type: in vivo, rat
Conditions: in comparison to baclofen, FIG. 3 legend only, values not given
Description: Baclofen, diazepam (Valium), and tizanidine are effective on different parameters of spasticity (EMG recordings, H-reflex, the H/M ratio, mono- and polysynaptic reflexes, clonus, hyperreflexia) in these models. The flexor reflex is a polysynaptic response elicited by stimulation of the bottom of the foot and models the withdrawal reflex.

Compound: NC(=O)CC(c1cccc(F)c1)c1cccc(F)c1 [Compound 1, 3,3-bis(3-fluorophenyl)propanamide]
- reduction in the flexor reflex: reduction in the flexor reflex
